{"source": "paper PMC9982066", "about": "“Inhibition of Ehrlichia chaffeensis infection by cell-permeable macrocyclic peptides that bind type IV secretion effector Etf-1” (PNAS Nexus, 2023)", "key": {"Etf-1": {"target": "Etf-1 (Ehrlichia chaffeensis, UniProt Q2GG12)", "sequence (Q2GG12 entry or part of it)": "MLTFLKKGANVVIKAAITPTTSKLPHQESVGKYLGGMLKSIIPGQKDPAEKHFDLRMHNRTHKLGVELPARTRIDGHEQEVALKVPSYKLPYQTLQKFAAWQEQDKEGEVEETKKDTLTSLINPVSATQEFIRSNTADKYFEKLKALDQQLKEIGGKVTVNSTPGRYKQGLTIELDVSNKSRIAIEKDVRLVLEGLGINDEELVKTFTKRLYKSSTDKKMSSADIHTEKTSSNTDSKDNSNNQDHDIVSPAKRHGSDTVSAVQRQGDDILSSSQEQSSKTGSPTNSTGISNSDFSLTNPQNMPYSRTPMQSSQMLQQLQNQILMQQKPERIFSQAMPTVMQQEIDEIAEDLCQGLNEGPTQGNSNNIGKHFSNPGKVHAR", "assay": "FP assay of Etf-1 binding with FAM-labeled peptides", "procedure": "The peptides were labeled at their C-terminus with carboxyfluorescein (FAM) through a β-Ala-β-Ala-Lys linker and evaluated for binding to Etf-1 by using a fluorescence polarization (FP) assay. […] This outcome is not unexpected, as screening OBOC libraries is often complicated by false positives, due to the presence of high ligand densities on library beads ([28]).\nFig. 2. Determination of binding affinity of Etf-1-binding peptides by FP assay. […] FAM-labeled peptide (50 nM) was incubated with serially diluted Etf-1 (starting from 25–30 μM in PBS, pH 7.4, supplemented with 5 mM DTT and 0.01% Triton X-100) for 1 h at RT. FP values were measured on a Tecan Infinite M1000 Pro plate reader. Titration curves (n ≥ 3) were fitted using GraphPad Prism and analyzed with TraceDrawer to calculate dissociation constants (KD). […] Data were analyzed using GraphPad Prism and fitted to a four-parameter variable slope equation to determine IC50 values.\nEtf-1 and macrocyclic peptides were serially diluted in PBS supplemented with 5 mM DTT and 0.01% Triton X-100 (v/v). FAM-labeled peptides (50 nM) were prepared from a 10-μM DMSO stock and incubated with serially diluted Etf-1 for 1 h at room temperature (RT). Twenty microliters of the solutions were transferred to a black 384-well plate (Greiner Bio-One) and FP values were measured on a Tecan Infinite M1000 Pro plate reader with excitation and emission wavelengths at 470 and 535 nm, respectively. Titration curves (n ≥ 3) were fitted using GraphPad Prism v8.0 (GraphPad, La Jolla, CA, USA), and analyzed with TraceDrawer software v1.8 (Ridgeview Instruments AB, Uppsala, Sweden) to calculate the dissociation constant (KD, in nM)."}, "E. chaffeensis [1]": {"system": "E. chaffeensis", "assay": "E. chaffeensis infection of THP-1 cells, qPCR of 16S rRNA gene normalized to human actin", "assay_type": "cell-based, Ehrlichia chaffeensis", "procedure": "Therefore, we investigated whether these Etf-1-binding peptides can prevent the proliferation of E. chaffeensis inside host cells. THP-1 cells were infected with E. chaffeensis, then treated with the peptides at 30 min post infection (pi) for 2 days. Intracellular infection and proliferation of E. chaffeensis inside host THP-1 cells were assessed using quantitative PCR (qPCR) analysis based on E. chaffeensis 16S rRNA gene normalized by human actin (ACT) gene.\nFig. 5. Effects of Etf-1-binding peptides on E. chaffeensis infection of THP-1 cells. Ehrlichia chaffeensis-infected THP-1 cells at […] were incubated with 10 μM of Etf-1-binding macrocyclic peptide or DMSO control for 2 days.\nNo antibiotic was used throughout the study.\nDNA was extracted from each sample using Qiagen blood mini kit according to the manufacturer's instructions (Qiagen, Valencia, CA, USA), and qPCR analysis was performed in an MX3000P qPCR instrument (Stratagene, San Diego, CA, USA) using SYBR Green Real-Time PCR Master Mix (Thermo Fisher Scientific) according to the manufacturer's instructions. Five-fold serial dilutions of the control group were used to generate a standard curve to calculate the relative copy numbers of E. chaffeensis 16S rRNA normalized against human actin genes using the MX3000P software from Stratagene as described previously ([18], [44])."}, "E. chaffeensis [2]": {"system": "E. chaffeensis", "assay": "morphological examination of E. chaffeensis infection of THP-1 cells by Diff-Quik staining", "conditions": "THP-1 cells, Fig. S4 (with Figs. 5, S3)", "procedure": "Ehrlichia chaffeensis Arkansas strain ([43]) was cultured in THP-1 cells (ATCC, Manassas, VA, USA) in RPMI 1640 medium (Corning, Manassas, VA, USA) supplemented with 8% FBS (Atlanta Biologicals, Flowery Branch, GA, USA) and 4 mM L-glutamine (at 37°C under 5% CO2 in a humidified atmosphere. THP-1 cells were seeded at 1 × 10^5 cells/well (in 1.5-mL RPMI 1640 culture medium with 8% FBS, 4 mM L-Gln) in a 12-well plate, then infected with host cell-free E. chaffeensis at an MOI (multiplicity of infection, or numbers of bacteria per cell) of ∼30. Cells were cultured in a humidified incubator with 5% CO2 and 95% air. No antibiotic was used throughout the study. At 0.5 h post infection (pi), cells were incubated with 1–10 μM of peptides or with an equal volume of DMSO (solvent control, 2 μL per mL medium). At 2 days pi, cells were washed with 1 mL of PBS, and two drops of cells were cytospun onto glass slides by a Shandon Cytospin 4 cytocentrifuge (Thermo Fisher Scientific), then fixed and stained with HEMA 3 staining solutions (Thermo Fisher Scientific). Ehrlichia infection was observed and images were captured by a SPOT RT digital camera (Diagnostic Instruments, Sterling Heights, MI, USA) coupled to a Nikon Eclipse E400 microscope (Nikon, Melville, NY, USA)."}}, "note": "Starred links: 1 amine or outer side, 2 acyl side, 3 side chain; linkers in the order of their positions; H or OH if unused. Positions of bridges follow the written chain, without caps; N, C: chain ends. Non-standard residues stand in square brackets, D forms with d. Residues, ends and D or L forms follow the SMILES beside them. Trimesoyl = O=C(c1cc(C(=O)[*:2])cc(C(=O)[*:3])c1)[*:1]; Phe(3-Cl) = N[C@@H](Cc1cccc(Cl)c1)C(=O)O; Phe(4-Cl) = N[C@@H](Cc1ccc(Cl)cc1)C(=O)O; Phe(4-F) = N[C@@H](Cc1ccc(F)cc1)C(=O)O; d2Nal = N[C@H](Cc1ccc2ccccc2c1)C(=O)O; βAsp = O=C(O)[C@H](CC(=O)[*:2])N[*:1]; Nle = CCCC[C@H](N)C(=O)O; Orn = NCCC[C@H](N)C(=O)O; Dap = NC[C@H](N)C(=O)O"}
{"smiles": "CC(C)C[C@H]1NC(=O)[C@H](CO)NC(=O)[C@H]2CCCN2C(=O)[C@H](CCC(N)=O)NC(=O)[C@H](Cc2c[nH]cn2)NC(=O)[C@H](Cc2ccc(O)cc2)NC(=O)c2cc3cc(c2)C(=O)NC[C@H](NC1=O)C(=O)N[C@@H](Cc1ccccc1)C(=O)N[C@H](Cc1ccc2ccccc2c1)C(=O)N[C@H](CCCNC(=N)N)C(=O)N[C@@H](C)C(=O)N[C@H](CCCNC(=N)N)C(=O)N[C@@H](CCCNC(=N)N)C(=O)N[C@H](C(N)=O)CNC3=O", "note": "[Peptide B7-10, TMA-Tyr-His-Gln-pro-Ser-leu-Dap-Phe-nal-arg-Ala-arg-Arg-Dap] (YHQ[dP]S[dL][Dap]F[d2Nal][dR]A[dR]R[Dap]-NH2; linker N-7-14 via Trimesoyl)", "values": [{"measurement": "Kd", "setting": "Etf-1", "result": "30 ± 3", "unit": "µM"}]}
{"smiles": "CC(C)C[C@H]1NC(=O)[C@H](CO)NC(=O)[C@H]2CCCN2C(=O)[C@H](CCC(N)=O)NC(=O)[C@H](Cc2c[nH]cn2)NC(=O)[C@H](Cc2ccc(O)cc2)NC(=O)c2cc3cc(c2)C(=O)NC[C@H](NC1=O)C(=O)N[C@@H](Cc1cccc(Cl)c1)C(=O)N[C@H](Cc1ccc2ccccc2c1)C(=O)N[C@H](CCCNC(=N)N)C(=O)N[C@@H](CCCNC(=N)N)C(=O)N[C@H](CCCNC(=N)N)C(=O)N[C@@H](CCCNC(=N)N)C(=O)N[C@H](C(N)=O)CNC3=O", "note": "[Peptide B7-17, TMA-Tyr-His-Gln-pro-Ser-leu-Dap-3-ClPhe-nal-arg-Arg-arg-Arg-Dap] (YHQ[dP]S[dL][Dap][Phe(3-Cl)][d2Nal][dR]R[dR]R[Dap]-NH2; linker N-7-14 via Trimesoyl)", "values": [{"measurement": "Kd", "setting": "Etf-1", "result": "3.4 ± 0.4", "unit": "µM"}]}
{"smiles": "CC(C)C[C@H]1NC(=O)[C@H](CO)NC(=O)[C@@H](C)NC(=O)[C@H](CCC(N)=O)NC(=O)[C@H](Cc2c[nH]cn2)NC(=O)[C@H](Cc2ccc(O)cc2)NC(=O)c2cc3cc(c2)C(=O)NC[C@H](NC1=O)C(=O)N[C@@H](Cc1ccccc1)C(=O)N[C@H](Cc1ccc2ccccc2c1)C(=O)N[C@H](CCCNC(=N)N)C(=O)N[C@@H](CCCNC(=N)N)C(=O)N[C@H](CCCNC(=N)N)C(=O)N[C@@H](CCCNC(=N)N)C(=O)N[C@H](C(N)=O)CNC3=O", "note": "[Peptide B7-3, TMA-Tyr-His-Gln-ala-Ser-leu-Dap-Phe-nal-arg-Arg-arg-Arg-Dap] (YHQ[dA]S[dL][Dap]F[d2Nal][dR]R[dR]R[Dap]-NH2; linker N-7-14 via Trimesoyl)", "values": [{"measurement": "Kd", "setting": "Etf-1", "result": "5.8 ± 0.5", "unit": "µM"}]}
{"smiles": "CC(C)C[C@H]1NC(=O)[C@H](CO)NC(=O)[C@H]2CCCN2C(=O)[C@H](CCC(N)=O)NC(=O)[C@H](Cc2c[nH]cn2)NC(=O)[C@H](Cc2ccc(O)cc2)NC(=O)c2cc3cc(c2)C(=O)NC[C@H](NC1=O)C(=O)N[C@@H](Cc1ccccc1)C(=O)N[C@H](Cc1ccc2ccccc2c1)C(=O)N[C@H](C)C(=O)N[C@@H](CCCNC(=N)N)C(=O)N[C@H](CCCNC(=N)N)C(=O)N[C@@H](CCCNC(=N)N)C(=O)N[C@H](C(N)=O)CNC3=O", "note": "[Peptide B7-9, TMA-Tyr-His-Gln-pro-Ser-leu-Dap-Phe-nal-ala-Arg-arg-Arg-Dap] (YHQ[dP]S[dL][Dap]F[d2Nal][dA]R[dR]R[Dap]-NH2; linker N-7-14 via Trimesoyl)", "values": [{"measurement": "Kd", "setting": "Etf-1", "result": "30 ± 7", "unit": "µM"}]}
{"smiles": "CCCC[C@@H]1NC(=O)[C@H](Cc2ccc(O)cc2)NC(=O)c2cc3cc(c2)C(=O)NC[C@H](NC(=O)[C@@H](CC(C)C)NC(=O)CNC(=O)[C@H](CCC(N)=O)NC(=O)[C@@H](CCC(=O)O)NC1=O)C(=O)N[C@@H](Cc1ccc(Cl)cc1)C(=O)N[C@H](Cc1ccc2ccccc2c1)C(=O)N[C@H](CCCNC(=N)N)C(=O)N[C@@H](CCCNC(=N)N)C(=O)N[C@H](CCCNC(=N)N)C(=O)N[C@@H](CCCNC(=N)N)C(=O)N[C@H](C(N)=O)CNC3=O", "note": "[Peptide B7-133-4, TMA-Tyr-Nle-glu-Gln-Gly-leu-Dap-4-ClPhe-nal-arg-Arg-arg-Arg-Dap] (Y[Nle][dE]QG[dL][Dap][Phe(4-Cl)][d2Nal][dR]R[dR]R[Dap]-NH2; linker N-7-14 via Trimesoyl)", "values": [{"measurement": "Kd", "setting": "Etf-1", "result": "6.5 ± 0.1", "unit": "µM"}]}
{"smiles": "CC(C)C[C@H]1NC(=O)[C@H](Cc2ccc(F)cc2)NC(=O)[C@@H](CCC(=O)O)NC(=O)C[C@@H](C(=O)O)NC(=O)[C@H](CCCN)NC(=O)[C@H](CC(=O)O)NC(=O)[C@H](Cc2ccc(O)cc2)NC(=O)c2cc3cc(c2)C(=O)NC[C@H](NC1=O)C(=O)N[C@@H](Cc1ccc(Cl)cc1)C(=O)N[C@H](Cc1ccc2ccccc2c1)C(=O)N[C@H](CCCNC(=N)N)C(=O)N[C@@H](CCCNC(=N)N)C(=O)N[C@H](CCCNC(=N)N)C(=O)N[C@@H](CCCNC(=N)N)C(=O)N[C@H](C(N)=O)CNC3=O", "note": "[Peptide B7-95-1, TMA-Tyr-Asp-Orn-isoAsp-glu-Fpa-leu-Dap-4-ClPhe-nal-arg-Arg-arg-Arg-Dap] (YD[Orn][βAsp][dE][Phe(4-F)][dL][Dap][Phe(4-Cl)][d2Nal][dR]R[dR]R[Dap]-NH2; linker N-8-15 via Trimesoyl)", "values": [{"measurement": "Kd", "setting": "Etf-1", "result": 3.2, "unit": "µM"}]}
{"smiles": "CCCC[C@@H]1NC(=O)[C@H](CC(=O)O)NC(=O)[C@@H](Cc2ccccc2)NC(=O)[C@H](Cc2ccc(O)cc2)NC(=O)c2cc3cc(c2)C(=O)NC[C@H](NC(=O)[C@@H](CC(C)C)NC(=O)[C@@H](CC(N)=O)NC1=O)C(=O)N[C@@H](Cc1ccc(Cl)cc1)C(=O)N[C@H](Cc1ccc2ccccc2c1)C(=O)N[C@H](CCCNC(=N)N)C(=O)N[C@@H](CCCNC(=N)N)C(=O)N[C@H](CCCNC(=N)N)C(=O)N[C@@H](CCCNC(=N)N)C(=O)N[C@H](C(N)=O)CNC3=O", "note": "[Peptide B7-133-3, TMA-Tyr-phe-Asp-Nle-asn-leu-Dap-4-ClPhe-nal-arg-Arg-arg-Arg-Dap] (Y[dF]D[Nle][dN][dL][Dap][Phe(4-Cl)][d2Nal][dR]R[dR]R[Dap]-NH2; linker N-7-14 via Trimesoyl)", "values": [{"measurement": "inhibition of E. chaffeensis infection", "setting": "E. chaffeensis [1]; 10 μM, 2 days, vs DMSO control", "result": "significantly inhibited"}, {"measurement": "dose dependence of inhibition of E. chaffeensis infection", "setting": "E. chaffeensis [1]; 1, 5, and 10 μM", "result": "dose-dependent manner"}, {"measurement": "inhibition of E. chaffeensis infection compared with peptide B7 (or B7-16)", "setting": "E. chaffeensis [1]; THP-1 cells", "result": "significantly more potent inhibition"}, {"measurement": "E. chaffeensis infection (numbers and sizes of morulae)", "setting": "E. chaffeensis [2]", "result": "significantly inhibited"}]}
